Results: article PMC10620772, “Design, synthesis, and biological evaluation of new pyrimidine-5-carbonitrile derivatives as novel anti-cancer, dual EGFR^WT/COX-2 inhibitors with docking studies” (RSC Advances, 2023)

Columns and labels:
Test in all cases: NCI60 antitumor screening
Assay type in all cases: cell-based, human
RXF 393 = test system: RXF 393
TK-10 = test system: TK-10
SK-OV-3 = test system: SK-OV-3
OVCAR-8 = test system: OVCAR-8
RPMI-8226 = test system: RPMI-8226
SK-MEL-2 = conditions: Homo sapiens; 10 μM single dose; SK-MEL-2 (melanoma); read-out: growth inhibition percent (GI%)
OVCAR-3 = test system: OVCAR-3
SNB-75 = conditions: Homo sapiens; 10 μM single dose; SNB-75 (CNS cancer); read-out: growth inhibition percent (GI%)
SF-268 = test system: SF-268
SF-295 = test system: SF-295
HCT-15 = test system: HCT-15
SN12C = test system: SN12C
UACC-257 = test system: UACC-257
DU-145 = test system: DU-145
786–0 = test system: 786–0
SNB-19 = test system: SNB-19
KM12 = test system: KM12
A549/ATCC = test system: A549/ATCC
MCF7 = test system: MCF7
M14 = test system: M14

SMILES: N#Cc1c(-c2ccc(F)cc2)nc(SCc2ccccc2)nc1N1CCNCC1 [4e, 2-(Benzylthio)-4-(4-fluorophenyl)-6-(piperazin-1-yl) pyrimidine-5-carbonitrile]
- GI50 (RXF 393; Homo sapiens, RXF 393, five-dose): 3.14 µM
- CC50 (RXF 393; Homo sapiens, RXF 393, five-dose, read-out: LC50 (the source's name)): 44.2 µM
- inhibition at 10 µM (RXF 393; Homo sapiens, 10 μM single dose, RXF 393 (renal cancer), read-out: growth inhibition percent (GI%)): > 100%
- TGI (RXF 393; five-dose): 14.80 µM
- GI50 (TK-10; Homo sapiens, TK-10, five-dose): 14.5 µM
- LC50 (TK-10; Homo sapiens, TK-10, five-dose): 55.5 µM
- inhibition at 10 µM (TK-10; Homo sapiens, 10 μM single dose, TK-10 (renal cancer), read-out: growth inhibition percent (GI%)): > 100%
- TGI (TK-10; five-dose): 28.40 µM
- GI50 (SK-OV-3; Homo sapiens, SK-OV-3, five-dose): 16 µM
- CC50 (SK-OV-3; Homo sapiens, SK-OV-3, five-dose, read-out: LC50 (the source's name)): 54.6 µM
- inhibition at 10 µM (SK-OV-3; Homo sapiens, 10 μM single dose, SK-OV-3 (ovarian cancer), read-out: growth inhibition percent (GI%)): > 100%
- TGI (SK-OV-3; five-dose): 29.50 µM
- GI50 (OVCAR-8; Homo sapiens, OVCAR-8, five-dose): 6.21 µM
- CC50 (OVCAR-8; Homo sapiens, OVCAR-8, five-dose, read-out: LC50 (the source's name)): 59.1 µM
- inhibition at 10 µM (OVCAR-8; Homo sapiens, 10 μM single dose, OVCAR-8 (ovarian cancer), read-out: growth inhibition percent (GI%)): > 100%
- TGI (OVCAR-8; five-dose): 21.80 µM
- GI50 (RPMI-8226; Homo sapiens, RPMI-8226, five-dose): 3.99 µM
- CC50 (RPMI-8226; Homo sapiens, RPMI-8226, five-dose, read-out: LC50 (the source's name)): 65.4 µM
- inhibition at 10 µM (RPMI-8226; Homo sapiens, 10 μM single dose, RPMI-8226 (leukaemia), read-out: growth inhibition percent (GI%)): > 100%
- TGI (RPMI-8226; five-dose): 17.50 µM
- inhibition at 10 µM (SK-MEL-2): > 100%
- GI50 (OVCAR-3; Homo sapiens, OVCAR-3, five-dose): 14.3 µM
- CC50 (OVCAR-3; Homo sapiens, OVCAR-3, five-dose, read-out: LC50 (the source's name)): 59.1 µM
- inhibition at 10 µM (OVCAR-3; Homo sapiens, 10 μM single dose, OVCAR-3 (ovarian cancer), read-out: growth inhibition percent (GI%)): > 100%
- TGI (OVCAR-3; five-dose): 29.10 µM
- inhibition at 10 µM (SNB-75): > 100%
- GI50 (SF-268; Homo sapiens, SF-268, five-dose): 12.9 µM
- CC50 (SF-268; Homo sapiens, SF-268, five-dose, read-out: LC50 (the source's name)): 65.4 µM
- inhibition at 10 µM (SF-268; Homo sapiens, 10 μM single dose, SF-268 (CNS cancer), read-out: growth inhibition percent (GI%)): > 100%
- TGI (SF-268; five-dose): 29.10 µM
- GI50 (SF-295; Homo sapiens, SF-295, five-dose): 15.8 µM
- CC50 (SF-295; Homo sapiens, SF-295, five-dose, read-out: LC50 (the source's name)): 57.5 µM
- inhibition at 10 µM (SF-295; Homo sapiens, 10 μM single dose, SF-295 (CNS cancer), read-out: growth inhibition percent (GI%)): > 100%
- TGI (SF-295; five-dose): 30.10 µM
- GI50 (HCT-15; Homo sapiens, HCT-15, five-dose): 5.05 µM
- CC50 (HCT-15; Homo sapiens, HCT-15, five-dose, read-out: LC50 (the source's name)): 43.8 µM
- inhibition at 10 µM (HCT-15; Homo sapiens, 10 μM single dose, HCT-15 (colon cancer), read-out: growth inhibition percent (GI%)): > 100%
- TGI (HCT-15; five-dose): 17.50 µM
- GI50 (SN12C; Homo sapiens, SN12C, five-dose): 13.8 µM
- CC50 (SN12C; Homo sapiens, SN12C, five-dose, read-out: LC50 (the source's name)): 53.8 µM
- inhibition at 10 µM (SN12C; Homo sapiens, 10 μM single dose, SN12C (renal cancer), read-out: growth inhibition percent (GI%)): > 100%
- TGI (SN12C; five-dose): 27.20 µM
- GI50 (UACC-257; Homo sapiens, UACC-257, five-dose): 13.1 µM
- CC50 (UACC-257; Homo sapiens, UACC-257, five-dose, read-out: LC50 (the source's name)): 52.6 µM
- inhibition at 10 µM (UACC-257; Homo sapiens, 10 μM single dose, UACC-257 (melanoma), read-out: growth inhibition percent (GI%)): > 100%
- TGI (UACC-257; five-dose): 26.20 µM
- GI50 (DU-145; Homo sapiens, DU-145, five-dose): 15 µM
- CC50 (DU-145; Homo sapiens, DU-145, five-dose, read-out: LC50 (the source's name)): 56 µM
- inhibition at 10 µM (DU-145; Homo sapiens, DU-145, read-out: growth inhibition percent (GI%)): > 100%
- TGI (DU-145; five-dose): 29.00 µM
- GI50 (786–0; Homo sapiens, 786-0, five-dose): 11 µM
- LC50 (concentration killing 50% of tumour cells) (786–0; Homo sapiens, 786-0, five-dose): 58.9 µM
- inhibition at 10 µM (786–0; Homo sapiens, 10 μM single dose, 786–0 (renal cancer), read-out: growth inhibition percent (GI%)): > 100%
- TGI (786–0; five-dose): 25.40 µM
- GI50 (SNB-19; Homo sapiens, SNB-19, five-dose): 14.2 µM
- CC50 (SNB-19; Homo sapiens, SNB-19, five-dose, read-out: LC50 (the source's name)): 60.6 µM
- inhibition at 10 µM (SNB-19; Homo sapiens, 10 μM single dose, SNB-19 (CNS cancer), read-out: growth inhibition percent (GI%)): > 100%
- TGI (SNB-19; five-dose): 29.30 µM
- GI50 (KM12; Homo sapiens, KM12, five-dose): 17.1 µM
- CC50 (KM12; Homo sapiens, KM12, five-dose, read-out: LC50 (the source's name)): 63.1 µM
- inhibition at 10 µM (KM12; Homo sapiens, 10 μM single dose, KM12 (colon cancer), read-out: growth inhibition percent (GI%)): > 100%
- TGI (KM12; five-dose): 32.80 µM
- GI50 (A549/ATCC; Homo sapiens, A549, five-dose): 8.1 µM
- LC50 (concentration killing 50% of cells) (A549/ATCC; Homo sapiens, A549, five-dose): 50.2 µM
- inhibition at 10 µM (A549/ATCC; Homo sapiens, 10 μM single dose, A549/ATCC (non-small cell lung cancer), read-out: growth inhibition percent (GI%)): > 100%
- TGI (A549/ATCC; five-dose): 21.50 µM
- GI50 (MCF7; Homo sapiens, MCF7, five-dose): 3.94 µM
- CC50 (MCF7; Homo sapiens, MCF7, five-dose, read-out: LC50 (the source's name)): 44.8 µM
- inhibition at 10 µM (MCF7; Homo sapiens, 10 μM single dose, MCF7 (breast cancer), read-out: growth inhibition percent (GI%)): > 100%
- TGI (MCF7; five-dose): 15.30 µM
- GI50 (M14; Homo sapiens, M14, five-dose): 12 µM
- CC50 (M14; Homo sapiens, M14, five-dose, read-out: LC50 (the source's name)): 51.4 µM
- inhibition at 10 µM (M14; Homo sapiens, 10 μM single dose, M14 (melanoma), read-out: growth inhibition percent (GI%)): > 100%
- TGI (M14; five-dose): 24.80 µM
